One substance from patent US8134017B1, “Compound and use thereof” (Riken, priority 2010, dated 2012) can be followed below.

Holding throughout (type): physicochemical
Data set [1] can be described thus: Solubility in organic solvents and water.
The nature of data set [2]: Particle size of aggregates by dynamic laser scattering (DLS). Particulars: 500 μM, 90% water/THF (1% TFA), 25° C. As to the method:
(§1) UV-vis spectra were collected on a SHIMADZU UV-1700 spectrophotometer at RT (room temperature) using a 1 cm or a 0.1 cm quartz cuvette. Emission spectra were collected on a HITACHI F-4500 fluorescence spectrophotometer. To obtain an accurate spectrum, spectrum correction was carried out with rhodamine B concentrated solution and a secondary-standard light source. In surface photometry, a cut filter was utilized to eliminate multiple lights, such as secondary light, due to the effects of light scattering. Fluorescence spectra of all samples were measured with excitation with 365 nm. Average particle size was measured by dynamic light scattering (ELSZ-2, Otsuka Electronics).
With the use of dynamic laser scattering (DLS), the particle size of ABPX01^+ was examined in 90% water/THF mixtures (containing 1% TFA) at 25° C. […] As illustrated in (b) of FIG. 14, the particle size of ABPX01^+ aggregates was 500 nm immediately after the preparation of ABPX01^+. The ABPX01^+ aggregates then grew to a size of more than 1200 nm after 30 min. The particle size of ABPX01^+ in methanol and chloroform (respectively, containing 1% TFA) could not be calculated because the fluctuation of the scattered photons was not sufficiently observed owing to the subnanometer size.

The nature of data set [3]: UV-vis absorption spectra. The note with it: 5 M, strong acid TFA/THF mixtures, cationic form. On the procedure:
as §1
What molecular species of ABPX are appropriate for the evaluation of AIEE in solution was examined. In order to examine to find the appropriate ABPX01 species, the absorbance spectra of […] of ABPX01 were measured in acid or alkaline solution. In THF solution and 1% TEA/THF mixture, the spectra had no peaks that were attributable to the neutral lactonoid species ABPX01^0. In the strong acid solutions of the TFA/THF mixtures, the absorbance spectra having two peaks at 490 nm and 540 nm should be attributable to the cationic form of ABPX01^+. ABPX01^+ is a quinonoid form delocalized over the luminophore and is therefore appropriate for the emission analysis.
The emission spectra are shown in (a) and (b) of FIG. 13. […]

Data set [4] can be described thus: Emission spectra, aggregation-induced emission enhancement (AIEE). On the procedure:
as §1
In contrast, the emission behavior of rhodamines in aqueous solution was reported to decrease at 10^−4 M and above because of the formation of the H-dimer. The behavior of ABPX01^+ was directly opposite to the concentration quenching of common hydrophobic dyes.
The AIEE characteristics of 500 μM of ABPX01^+ to ABPX04^+ were investigated in various solvents. […] The emission spectrum of 500 μM of ABPX01^+ in THF was nonemissive.
The problem was solved by using the surface photometric method (FIG. 12). Explained below are the respective surface photometric equipment configurations. […] The problem was solved by using the surface photometric method. A sample holder was set at an angle of 30° with respect to the excitation light. However, attention should be paid to the linearity of the emission intensity against the concentration for the accurate evaluation of high-concentration sample solutions, such as AIEE molecules. In addition, the relative quantum yields of ABPX in solution could not be determined because of the lack of a standard compound. The use of the surface photometric method allows development of an apparatus for the measurement of the absolute fluorescence quantum yields of high-concentration solutions.
The emission spectra are shown in (a) and (b) of FIG. 13. The emission could be observed when 30% volume fraction of water was added. The emission was enhanced when 50% to 90% volume fraction of water was added. Absorption measurements were similarly carried out in water/THF mixtures (containing 1% TFA). As the water fraction increased, the sharp aggregate spectra appearing at approximately 548 and 600 nm grew, as shown in (c) of FIG. 13. From 30% volume fraction of water addition, level-off tails were seen, which were attributed to Mie scattering caused by nanosized particles.
In order to check whether or not restriction of […] rotation (RIR) is involved in AIEE of ABPX01^+, viscochromism and thermochromism of the ABPX01^+ emission were examined. RIR was affected by the viscosity and temperature of the solvent. […] ABPX01^+ inhibited intramolecular rotation and induced AIEE at high viscosity and low temperature.

Where “and” joins values, the source holds several entries; their conditions need not be identical. Identical values can stand only once.

On to “3′,3″-Bis (oxospriroisobenzofuran)-3,7-bis(diethylamino)benzopyranoxanthene [ABPX01]”, for which the “solubility in THF” value in data set [1] (THF) is reported as “easily dissolved”. Besides, the “solubility in organic solvents” value in data set [1] (chloroform, methanol, acetone, THF, ethanol) is listed as “easy to dissolve”. In addition, the solubility in water result is “not easy to dissolve” in data set [1] and “not in water” in data set [1] (listed as ABPX01^+). For the same substance, the results for the “particle size of aggregates” value in data set [2] (after 30 min) and in data set [2] (immediately after preparation) were “more than 1200 nm” and 500 nm, respectively. Besides, in data set [3], the absorbance peaks is 490 nm and 540 nm. The AIEE result in data set [4] (500 μM in 1% TFA/chloroform, methanol, ethanol or acetone) was “exhibited AIEE”. Moreover, in data set [4] (500 μM in THF), the “emission in THF” value is given as “nonemissive”. In addition, in data set [4] (500 μM, water/THF mixtures), the “volume fraction of water at which emission could be observed” value came out at 30%. The “emission intensity with increasing concentration” value in data set [4] (5, 50, 500 μM in 1% TFA/methanol, excitation 365 nm) is listed as “increased”. Moreover, in data set [4] (glycerol/methanol viscosity increased or methanol temperature decreased), the “emission with increasing solvent viscosity or decreasing temperature” value is recorded as “increased”.
